This is an account of results in patent US8987250B2 (Gilead Sciences, Inc., priority 2012, dated 2015).

One data set deals with HIV-IIIb. Description: Test A: Antiviral Assay in MT4 Cells. It counts as cell-based. The following applies: Human immunodeficiency virus 1, IIIB, MT4, 120 h, MT-4 cells infected with HIV-IIIb, 5 days of incubation, CellTiter-Glo, read-out: EC50. Put shortly:
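Read-out: CellTiter-Glo chemiluminescence after 5-day incubation at 37 °C. Compounds tested as 3-fold serial dilutions (10 concentrations, quadruplicate) in RPMI 1640 with 10% FBS, on MT-4 cells pre-infected at 37 °C with HIV-IIIb at 0.004 m.o.i.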
A general note: Cellular ATP, detected with luciferase, serves as a proxy for viable cell number.

In the next data set the test system is human liver microsomes. The experiment in a line: Test B: Metabolic Stability Assay with Human Liver Microsomes. The class given is in vitro ADME. The following applies: 1 uM compound, 1 mg/mL human liver microsomal proteins, 37° C., 0-60 minutes; half-life class. An excerpt:
Test B: Metabolic Stability Assay with Human Liver Microsomes
Effective viral suppression in the HIV infected patient requires that the antiviral drug persists in the patient's body at concentrations exceeding the minimum concentration required to inhibit viral proliferation. One of the factors controlling the drug levels after dosing is metabolic conversion. The liver is one site of drug metabolism. Approximately 60% of marketed drugs are cleared by hepatic metabolism (McGinnity D F et al. (2004) Drug Metab Dispos 32; 1247-1253). Liver microsomes are subcellular fractions which contain membrane bound drug metabolising enzymes. Human liver microsomes provide a convenient and concentrated source of the key liver metabolic enzymes (e.g., cytochromes P450, UDP-glucuronosyltransferases, and many others) and can be used to predict the metabolic stability of drug candidates (e.g., agents).
Cluster tubes containing 500 uL of 1 uM compound with 1 mg/mL human liver microsomal proteins (BD Biosciences, BD452117)/50 mM K-phosphate buffer pH7.4/NADPH regenerating system/and UDP-glucuronosyltransferase cofactors, were incubated on the Precision-2000 workstation at 37° C. for 0, 10, 25, 60 minutes. The reactions were quenched with 100 uL of 0.2% formic acid in 90% ACN; containing 50 nM of an internal standard. The samples were analyzed on LC/MS/MS instrument (Q-Trap). Metabolic stabilities in microsomal fractions and hepatocytes were determined by measuring the rate of disappearance of the compound. Data (% of parent remaining) were plotted on a semi logarithmic scale and fitted using an exponential fit.
(In general: Liver microsomes are vesicles of endoplasmic reticulum, rich in cytochrome P450 enzymes.)

Like-named read-outs stand apart in the source and are kept apart here.

`COc1cncc(-c2cccc(-c3nc4cc(C)c([C@H](OC(C)(C)C)C(=O)O)c(-c5ccc(Cl)cc5)c4s3)c2)c1` [Compound 104, (S)-2-tert-butoxy-2-(7-(4-chlorophenyl)-2-(3-(5-methoxypyridin-3-yl)phenyl)-5-methylbenzo[d]thiazol-6-yl)acetic acid]: the EC50 in the data set with HIV-IIIb (Table 1) was 0.042 µM. Also, the “Human Microsomal stability” value in the data set on human liver microsomes was “C (a human microsomal stability half-life of less than 150 minutes)”.
The like results for `Cc1cc2nc(-c3ccnc(-c4ccc5c(cnn5C)c4)c3)sc2c(-c2ccc(Cl)cc2)c1[C@H](OC(C)(C)C)C(=O)O` [Compound 113a, (S)-2-tert-butoxy-2-(7-(4-chlorophenyl)-5-methyl-2-(2-(1-methyl-1H-indazol-5-yl)pyridin-4-yl)benzo[d]thiazol-6-yl)acetic acid] were, in that order, 0.016 µM and “A (a human microsomal stability half-life of greater than or equal to 300 minutes)”.
Take `Cc1cc2nc(N3CCN(C)C(c4ccc5c(cnn5C)c4)C3)sc2c(-c2ccc(Cl)cc2)c1[C@H](OC(C)(C)C)C(=O)O` (stereo partly drawn) [Compound 278, (2S)-2-tert-butoxy-2-(7-(4-chlorophenyl)-5-methyl-2-(4-methyl-3-(1-methyl-1H-indazol-5-yl)piperazin-1-yl)benzo[d]thiazol-6-yl)acetic acid]: in the data set with HIV-IIIb (Table 2), the 50% effective concentration (EC50) stood at 0.004 µM. Further, in the data set on human liver microsomes, the “Human Microsomal stability” value was “B (a human microsomal stability half-life of less than 300 minutes but greater than or equal to 150 minutes)”.
Consider `Cc1cc2nc(-c3ccnc(-n4ccc5cnccc5c4=O)c3)sc2c(-c2ccc(Cl)cc2)c1[C@H](OC(C)(C)C)C(=O)O` [Compound 186, (S)-2-tert-butoxy-2-(7-(4-chlorophenyl)-5-methyl-2-(2-(1-oxo-2,6-naphthyridin-2(1H)-yl)pyridin-4-yl)benzo[d]thiazol-6-yl)acetic acid], for which the EC50 in the data set on HIV-IIIb (Table 2) is 0.004 µM. Further, in the data set on human liver microsomes, the “Human Microsomal stability” value is “C (a human microsomal stability half-life of less than 150 minutes)”.

What is called EC50 is the concentration giving half of the maximal effect.
